Literature values in patent publication US12048727B2, “Synergistic formulation against acne and a process for the preparation thereof” (COUNCIL OF SCIENTIFIC & INDUSTRIAL RESEARCH, priority 2019, dated 2024).

System: P. acnes strains
Conditions: Indian population

| Compound | resistance of antibiotics [%] |
| --- | --- |
| CC[C@H]1OC(=O)[C@H](C)[C@@H](O[C@H]2C[C@@](C)(OC)[C@@H](O)[C@H](C)O2)[C@H](C)[C@@H](O[C@@H]2O[C@H](C)C[C@H](N(C)C)[C@H]2O)[C@](C)(O)C[C@@H](C)CN(C)[C@H](C)[C@@H](O)[C@]1(C)O [azithromycin] | 100 |
| CC[C@H]1OC(=O)[C@H](C)[C@@H](O[C@H]2C[C@@](C)(OC)[C@@H](O)[C@H](C)O2)[C@H](C)[C@@H](O[C@@H]2O[C@H](C)C[C@H](N(C)C)[C@H]2O)[C@](C)(O)C[C@@H](C)C(=O)[C@H](C)[C@@H](O)[C@]1(C)O [erythromycin] | 98 |
